The nature of the data set: activity coefficient (dimensionless); of the first substance listed, at infinite dilution; xn = mol fraction of the nth substance listed. The conditions noted are these: 101 kPa, Liquid, x1 = 0.

± gives the expanded uncertainty stated by the source.

As to `ClCCCl` [1,2-dichloroethane] + CCCCCCn1cc[n+](C)c1.F[B-](F)(F)F, the activity coefficient is, setting by setting: (323 K, Chromatography) 1.06 ± 0.11; (343 K, Chromatography) 1.19 ± 0.12.
With `CCc1ccccc1` [ethylbenzene] + CCCCn1cc[n+](C)c1.F[B-](F)(F)F, the activity coefficient turned out to be 6.65 ± 0.7 (323 K, Chromatography) and 7.2 ± 0.76 (343 K, Chromatography).
With `c1ccccc1` [benzene] + CCCCCCCC[n+]1ccn(C)c1.F[B-](F)(F)F, the activity coefficient runs as follows: (303 K, Chromatography) 1.28 ± 0.13; (323 K, Chromatography) 1.29 ± 0.13; (343 K, Chromatography) 1.29 ± 0.13.
For `ClC(Cl)(Cl)Cl` [tetrachloromethane] + CCCCCCCC[n+]1ccn(C)c1.F[B-](F)(F)F, the activity coefficient was 2.39 ± 0.25 (323 K, Chromatography) and 2.62 ± 0.28 (343 K, Chromatography).
Turning to `C=CCCCC` [hex-1-ene] + CCCCCCn1cc[n+](C)c1.F[B-](F)(F)F, the activity coefficient is, setting by setting: (303 K, Chromatography) 15.9 ± 1.7; (323 K, Chromatography) 14.8 ± 1.6; (343 K, Chromatography) 14.8 ± 1.6.
On to `ClCCCl` [1,2-dichloroethane] + CCn1cc[n+](C)c1.F[B-](F)(F)F, for which the activity coefficient reads like this: (323 K, Chromatography) 1.32 ± 0.14; (343 K, Chromatography) 1.37 ± 0.14.
Regarding `CC(C)O` [propan-2-ol] + CCCCCCCC[n+]1ccn(C)c1.F[B-](F)(F)F, the activity coefficient reads like this: (323 K, Chromatography) 1.41 ± 0.15; (343 K, Chromatography) 1.27 ± 0.13.
As for `CCCO` [propan-1-ol] + CCCCn1cc[n+](C)c1.F[B-](F)(F)F, the activity coefficient by setting is: (323 K, Chromatography) 2.64 ± 0.28; (343 K, Chromatography) 2.28 ± 0.24.
As to `C1CCCCC1` [cyclohexane] + CCCCn1cc[n+](C)c1.F[B-](F)(F)F, the activity coefficient (303 K, Chromatography) amounted to 44.9 ± 4.7; the activity coefficient (323 K, Chromatography) came out at 38.4 ± 4; the activity coefficient (343 K, Chromatography) was 32.8 ± 3.5.
For `CC(C)O` [propan-2-ol] + CCCCn1cc[n+](C)c1.F[B-](F)(F)F, the activity coefficient runs as follows: (323 K, Chromatography) 2.47 ± 0.11; (343 K, Chromatography) 2.17 ± 0.1.
Take `CC(C)O` [propan-2-ol] + CCCCCCn1cc[n+](C)c1.F[B-](F)(F)F: the activity coefficient (323 K, Chromatography) was 1.61 ± 0.17 and the activity coefficient (343 K, Chromatography) is 1.57 ± 0.16.
As for `CCC(C)=O` [butanone] + CCCCn1cc[n+](C)c1.F[B-](F)(F)F, the activity coefficient (323 K, Chromatography) was determined as 1.64 ± 0.17 and the activity coefficient (343 K, Chromatography) turned out to be 1.72 ± 0.18.
Take `Cc1ccccc1` [toluene] + CCCCCCn1cc[n+](C)c1.F[B-](F)(F)F: the activity coefficient (343 K, Chromatography) was determined as 2.61 ± 0.27.
Turning to `CO` [methanol] + CCCCCCn1cc[n+](C)c1.F[B-](F)(F)F, the activity coefficient reads like this: (303 K, Chromatography) 1.19 ± 0.12; (323 K, Chromatography) 1.08 ± 0.11; (343 K, Chromatography) 0.99 ± 0.1.
As for `CC(C)O` [propan-2-ol] + CCn1cc[n+](C)c1.F[B-](F)(F)F, the activity coefficient by setting is: (323 K, Chromatography) 1.05 ± 0.11; (343 K, Chromatography) 1.01 ± 0.1.
For `CCc1ccccc1` [ethylbenzene] + CCCCCCCC[n+]1ccn(C)c1.F[B-](F)(F)F, the activity coefficient (323 K, Chromatography) turned out to be 2.35 ± 0.25 and the activity coefficient (343 K, Chromatography) is 2.66 ± 0.28.
For `Cc1ccccc1` [toluene] + CCCCn1cc[n+](C)c1.F[B-](F)(F)F, the activity coefficient worked out at 4.14 ± 0.44 (323 K, Chromatography) and 4.13 ± 0.43 (343 K, Chromatography).
Turning to `C=CCCCC` [hex-1-ene] + CCCCn1cc[n+](C)c1.F[B-](F)(F)F, the activity coefficient came out at 35.4 ± 3.7 (303 K, Chromatography); 32.2 ± 3.4 (323 K, Chromatography); 30.5 ± 3.2 (343 K, Chromatography).
For `CCCCCCC` [heptane] + CCCCCCn1cc[n+](C)c1.F[B-](F)(F)F, the activity coefficient reads like this: (303 K, Chromatography) 47.7 ± 5; (323 K, Chromatography) 39.9 ± 4.2; (343 K, Chromatography) 33.6 ± 3.5.
For the compound `C1CCCCC1` [cyclohexane] + CCn1cc[n+](C)c1.F[B-](F)(F)F, the activity coefficient turned out to be 53.7 ± 5.7 (303 K, Chromatography); 46.2 ± 4.9 (323 K, Chromatography); 38.9 ± 4.1 (343 K, Chromatography).
For the compound `C1CCCCC1` [cyclohexane] + CCCCCCn1cc[n+](C)c1.F[B-](F)(F)F, the activity coefficient (303 K, Differential ebulliometry) was 18.6 ± 1.9; the activity coefficient (323 K, Differential ebulliometry) is 16.5 ± 1.6; the activity coefficient (343 K, Differential ebulliometry) came out at 15.2 ± 1.5.
With `CCOC(C)=O` [ethyl acetate] + CCCCCCn1cc[n+](C)c1.F[B-](F)(F)F, the activity coefficient runs as follows: (323 K, Chromatography) 5.58 ± 0.59; (343 K, Chromatography) 5.48 ± 0.58.
Turning to `CC(C)=O` [acetone] + CCCCn1cc[n+](C)c1.F[B-](F)(F)F, the activity coefficient by setting is: (323 K, Chromatography) 1.05 ± 0.11; (343 K, Chromatography) 1.11 ± 0.11.

Values taken from the NIST ThermoML archive (doi:10.1021/je050544m).
